In PubChem BioAssay AID1259407 (Chemical Carcinogenesis Research Information System (CCRIS), 2018):
Calls of active or inactive are those of the source. How the calls were made is not given here.

System: CCRIS mutagenicity, Ames/micronucleus/aberration tests
Assay: CCRIS mutagenicity studies
[1] = Test System: AMES SALMONELLA TYPHIMURIUM, Strain/Indicator: TA98, Metabolic Activation: NONE, Method: STANDARD PLATE
[2] = Test System: AMES SALMONELLA TYPHIMURIUM, Strain/Indicator: TA98, Metabolic Activation: RAT, LIVER, S-9, AROCLOR 1254, Method: STANDARD PLATE
[3] = Test System: AMES SALMONELLA TYPHIMURIUM, Strain/Indicator: TA100, Metabolic Activation: NONE, Method: STANDARD PLATE
[4] = Test System: AMES SALMONELLA TYPHIMURIUM, Strain/Indicator: TA100, Metabolic Activation: RAT, LIVER, S-9, AROCLOR 1254, Method: STANDARD PLATE
[5] = Test System: AMES SALMONELLA TYPHIMURIUM, Strain/Indicator: TA1535, Metabolic Activation: NONE, Method: STANDARD PLATE
[6] = Test System: AMES SALMONELLA TYPHIMURIUM, Strain/Indicator: TA1535, Metabolic Activation: RAT, LIVER, S-9, AROCLOR 1254, Method: STANDARD PLATE
[7] = Test System: AMES SALMONELLA TYPHIMURIUM, Strain/Indicator: TA1537, Metabolic Activation: NONE, Method: STANDARD PLATE
[8] = Test System: AMES SALMONELLA TYPHIMURIUM, Strain/Indicator: TA1537, Metabolic Activation: RAT, LIVER, S-9, AROCLOR 1254, Method: STANDARD PLATE
[9] = Test System: AMES SALMONELLA TYPHIMURIUM, Strain/Indicator: TA1538, Metabolic Activation: NONE, Method: STANDARD PLATE
[10] = Test System: AMES SALMONELLA TYPHIMURIUM, Strain/Indicator: TA1538, Metabolic Activation: RAT, LIVER, S-9, AROCLOR 1254, Method: STANDARD PLATE

For C=COC(N)=O, the mutagenic call (End Point: In vivo micronucleus, Test System: Peripheral blood reticulocytes, Species: Mouse, Strain/Sex: F1 (Big Blue x A/J) transgenic/Male and female, Route: Intraperitoneal) was “active; positive” and the mutagenic call (Test System: UDS MOUSE SPERMATIDS, Strain/Indicator: THY INCORP, Metabolic Activation: NONE) was “active; positive”.
N[C@@H](CCCCN/C=C/C=O)C(=O)O was tested, and the mutagenic call (Test System: AMES SALMONELLA TYPHIMURIUM, Strain/Indicator: HISD3052, Metabolic Activation: NONE, Method: STANDARD PLATE) was “active; positive”.
O=[N+]([O-])c1ccccc1C(F)(F)F was tested, and the mutagenic call [1] was “inactive; negative”, the mutagenic call [2] was “inactive; negative” and the mutagenic call [3] was “inactive; negative”. The mutagenic call [4] was “inactive; negative”, the mutagenic call [5] was “inactive; negative” and the mutagenic call [6] was “inactive; negative”. The mutagenic call [7] was “inactive; negative”, the mutagenic call [8] was “inactive; negative” and the mutagenic call [9] was “inactive; negative”. For the same compound, the mutagenic call [10] was “inactive; negative”.
For [Cl][Fe]([Cl])[Cl], the mutagenic call (Test System: AMES SALMONELLA TYPHIMURIUM, Strain/Indicator: TA98, Metabolic Activation: HAMSTER, LIVER, S-9, AROCLOR 1254, Method: STANDARD PLATE) was “inactive; negative”, the mutagenic call (Test System: AMES SALMONELLA TYPHIMURIUM, Strain/Indicator: TA98, Metabolic Activation: NONE, Method: PREINCUBATION) was “inactive; negative” and the mutagenic call [1] was “inactive; negative”. The mutagenic call [2] was “inactive; negative”, the mutagenic call (Test System: AMES SALMONELLA TYPHIMURIUM, Strain/Indicator: TA98, Metabolic Activation: RAT, LIVER, S-9, KC 500, Method: PREINCUBATION) was “inactive; negative” and the mutagenic call (Test System: AMES SALMONELLA TYPHIMURIUM, Strain/Indicator: TA100, Metabolic Activation: HAMSTER, LIVER, S-9, AROCLOR 1254, Method: STANDARD PLATE) was “inactive; negative”. The mutagenic call (Test System: AMES SALMONELLA TYPHIMURIUM, Strain/Indicator: TA100, Metabolic Activation: NONE, Method: PREINCUBATION) was “inactive; negative”, the mutagenic call [3] was “inactive; negative” and the mutagenic call [4] was “inactive; negative”. The mutagenic call (Test System: AMES SALMONELLA TYPHIMURIUM, Strain/Indicator: TA100, Metabolic Activation: RAT, LIVER, S-9, KC 500, Method: PREINCUBATION) was “inactive; negative”, the mutagenic call (Test System: AMES SALMONELLA TYPHIMURIUM, Strain/Indicator: TA1535, Metabolic Activation: HAMSTER, LIVER, S-9, AROCLOR 1254, Method: STANDARD PLATE) was “inactive; negative” and the mutagenic call (Test System: AMES SALMONELLA TYPHIMURIUM, Strain/Indicator: TA1535, Metabolic Activation: NONE, Method: PREINCUBATION) was “inactive; negative”. The mutagenic call [5] was “inactive; negative”, the mutagenic call [6] was “inactive; negative” and the mutagenic call (Test System: AMES SALMONELLA TYPHIMURIUM, Strain/Indicator: TA1535, Metabolic Activation: RAT, LIVER, S-9, KC 500, Method: PREINCUBATION) was “inactive; negative”. For the same compound, the mutagenic call (Test System: AMES SALMONELLA TYPHIMURIUM, Strain/Indicator: TA1537, Metabolic Activation: HAMSTER, LIVER, S-9, AROCLOR 1254, Method: STANDARD PLATE) was “inactive; negative”, the mutagenic call (Test System: AMES SALMONELLA TYPHIMURIUM, Strain/Indicator: TA1537, Metabolic Activation: NONE, Method: PREINCUBATION) was “inactive; negative” and the mutagenic call [7] was “inactive; negative”. For the same compound, the mutagenic call [8] was “inactive; negative”, the mutagenic call (Test System: AMES SALMONELLA TYPHIMURIUM, Strain/Indicator: TA1537, Metabolic Activation: RAT, LIVER, S-9, KC 500, Method: PREINCUBATION) was “inactive; negative” and the mutagenic call (Test System: AMES SALMONELLA TYPHIMURIUM, Strain/Indicator: TA1538, Metabolic Activation: HAMSTER, LIVER, S-9, AROCLOR 1254, Method: STANDARD PLATE) was “inactive; negative”. For the same compound, the mutagenic call (Test System: AMES SALMONELLA TYPHIMURIUM, Strain/Indicator: TA1538, Metabolic Activation: NONE, Method: PREINCUBATION) was “inactive; negative”, the mutagenic call [9] was “inactive; negative” and the mutagenic call [10] was “inactive; negative”. For the same compound, the mutagenic call (Test System: AMES SALMONELLA TYPHIMURIUM, Strain/Indicator: TA1538, Metabolic Activation: RAT, LIVER, S-9, KC 500, Method: PREINCUBATION) was “inactive; negative”, the mutagenic call (Test System: E. COLI, Strain/Indicator: WP2 UVRA, Metabolic Activation: NONE, Method: PREINCUBATION) was “inactive; negative” and the mutagenic call (Test System: E. COLI, Strain/Indicator: WP2 UVRA, Metabolic Activation: RAT, LIVER, S-9, KC 500, Method: PREINCUBATION) was “inactive; negative”. The mutagenic call (Test System: MOUSE LYMPHOMA, Strain/Indicator: L5178Y (TK+/TK-), Metabolic Activation: NONE, Method: SUSPENSION/PLATE) was “inactive; negative” and the mutagenic call (Test System: MOUSE LYMPHOMA, Strain/Indicator: L5178Y (TK+/TK-), Metabolic Activation: RAT, LIVER, S-9, AROCLOR 1254, Method: SUSPENSION/PLATE) was “active; positive”.
With CC(=O)Nc1cc(O)c2ccc3cccc4ccc1c2c34 the mutagenic call (Test System: AMES SALMONELLA TYPHIMURIUM, Strain/Indicator: TA98(1,8-DNP6), Metabolic Activation: NONE, Method: STANDARD PLATE) was “active; positive”, the mutagenic call (Test System: AMES SALMONELLA TYPHIMURIUM, Strain/Indicator: TA98(1,8-DNP6), Metabolic Activation: RAT, LIVER, S-9, AROCLOR 1254, Method: STANDARD PLATE) was “active; positive” and the mutagenic call [1] was “active; positive”. The mutagenic call [2] was “active; positive”, the mutagenic call (Test System: AMES SALMONELLA TYPHIMURIUM, Strain/Indicator: YG1024, Metabolic Activation: NONE, Method: STANDARD PLATE) was “active; positive” and the mutagenic call (Test System: AMES SALMONELLA TYPHIMURIUM, Strain/Indicator: YG1024, Metabolic Activation: RAT, LIVER, S-9, AROCLOR 1254, Method: STANDARD PLATE) was “active; positive”.
For C=C(C)C(=O)OCC(C)(C)COC(=O)C(=C)C, the mutagenic call [1] was “inactive; negative”, the mutagenic call [2] was “inactive; negative” and the mutagenic call (Test System: AMES SALMONELLA TYPHIMURIUM, Strain/Indicator: TA98, Metabolic Activation: RAT, LIVER, S-9, SODIUM PHENOBARBITAL, Method: STANDARD PLATE) was “inactive; negative”. For the same compound, the mutagenic call [3] was “inactive; negative”, the mutagenic call [4] was “inactive; negative” and the mutagenic call (Test System: AMES SALMONELLA TYPHIMURIUM, Strain/Indicator: TA100, Metabolic Activation: RAT, LIVER, S-9, SODIUM PHENOBARBITAL, Method: STANDARD PLATE) was “inactive; negative”. The mutagenic call [5] was “inactive; negative”, the mutagenic call [6] was “inactive; negative” and the mutagenic call (Test System: AMES SALMONELLA TYPHIMURIUM, Strain/Indicator: TA1535, Metabolic Activation: RAT, LIVER, S-9, SODIUM PHENOBARBITAL, Method: STANDARD PLATE) was “inactive; negative”. For the same compound, the mutagenic call [7] was “inactive; negative”, the mutagenic call [8] was “inactive; negative” and the mutagenic call (Test System: AMES SALMONELLA TYPHIMURIUM, Strain/Indicator: TA1537, Metabolic Activation: RAT, LIVER, S-9, SODIUM PHENOBARBITAL, Method: STANDARD PLATE) was “inactive; negative”. The mutagenic call [9] was “inactive; negative”, the mutagenic call [10] was “inactive; negative” and the mutagenic call (Test System: AMES SALMONELLA TYPHIMURIUM, Strain/Indicator: TA1538, Metabolic Activation: RAT, LIVER, S-9, SODIUM PHENOBARBITAL, Method: STANDARD PLATE) was “inactive; negative”.
c1ccc([C@H]2N[C@H]2c2ccccc2)cc1 was tested, and the mutagenic call [1] was “inactive; negative”, the mutagenic call [3] was “active; positive” and the mutagenic call [7] was “inactive; negative”.
For CC(C)CCOS(C)(=O)=O, the mutagenic call (End Point: IN VITRO MICRONUCLEUS, Test System: MOUSE LYMPHOMA L5178Y CELLS, Metabolic Activation: NONE) was “active; positive”, the mutagenic call (End Point: IN VITRO MICRONUCLEUS, Test System: MOUSE LYMPHOMA L5178Y CELLS, Metabolic Activation: RAT, LIVER, S-9) was “inactive; negative” and the mutagenic call [3] was “active; positive”. The mutagenic call (Test System: AMES SALMONELLA TYPHIMURIUM, Strain/Indicator: TA100, Metabolic Activation: RAT, LIVER, S-9, Method: STANDARD PLATE) was “active; positive”.
